IC50 data for 16 compounds are collected here from patent publication US11344546B2, “Benzamide compounds” (Recurium IP Holdings, LLC, priority 2018, dated 2022).

Assay [1] relates to NCI-H1963 cells. Kind of assay: NCI-H1963 cell proliferation assay (CellTiter-Glo). The format is cell-based. The conditions noted are these: Homo sapiens, 72 h compound treatment, read-out: H1963 (nM) CTG IC50. As to the method: (§1) Cell proliferation was measured using the CellTiter-Glo@ Luminescent Cell Viability Assay. The assay involved the addition of a single reagent (CellTiter-Glo® Reagent) directly to cells cultured in serum-supplemented medium. RS4;11 (ATC, CRL-1873) cells were cultured according to ATCC recommendations and were seeded at 50,000 cells per well. NCI-H1963 cells (ATCC CRL-5982) were cultured according to ATCC recommendations and seeded at 12,000 cells per well.
(§2) Each compound evaluated was prepared as a DMSO stock solution (10 mM). Compounds were tested in duplicate on each plate, with a 10-point serial dilution curve (1:3 dilution). Compound treatment (1.0 μL) was added from the compound dilution plate to the cell plate. The highest compound concentration was 10 μM (final), with a 0.1% final DMSO concentration. Plates were then incubated at 37° C., 5% CO2. After 48 h of compound treatment for RS4;11 or 72 h for NCI-H1963, cell plates were equilibrated at rt for approximately 30 mins. An equi-volume amount of CellTiter-Glo@ Reagent (40 μL) was added to each well. Plates were mixed for 2 mins on an orbital shaker to induce cell lysis and then incubated at RT for 10 mins to stabilize the luminescent signal. Luminescence was recorded using a Envision plate reader according to CellTiter-Glo protocol. IC50 of each compound was calculated using GraphPad Prism by nonlinear regression analysis.
A general note: Cellular ATP, detected with luciferase, serves as a proxy for viable cell number.

The subject of assay [2] is RS4;11 cells. Kind of assay: RS4;11 cell proliferation assay (CellTiter-Glo). The format is cell-based. The conditions noted are these: Homo sapiens, 48 h compound treatment, read-out: RS4;11 (nM) CTG IC50. As for the experimental part:
as §1, §2

Molecules are shown by their SMILES.

Take `CC1(C)CCC(CN2CCN(c3ccc(C(=O)NS(=O)(=O)c4ccc(NCC5CCOCC5)c([N+](=O)[O-])c4)c(Oc4cnc5[nH]ccc5c4)c3)CC2)=C(c2ccc(Cl)cc2)C1` [ABT-199, reference compound]: the IC50 was over 1000 nM in assay [1] and under 100 nM in assay [2]. For `CC1(C)CCC(c2ccc(Cl)cc2)=C(CN2CCN(c3ccc(C(=O)NS(=O)(=O)c4ccc(N[C@H](CCN5CCOCC5)CSc5ccccc5)c(S(=O)(=O)C(F)(F)F)c4)cc3)CC2)C1` [ABT-263, reference compound] the same measures were at most 500 nM and under 100 nM.

Turning to `CC1(C)CCC(CN2CCN(c3ccc(C(=O)NS(=O)(=O)c4ccc(NCC5CC6(CCOCC6)C5)c([N+](=O)[O-])c4)c(Oc4cnc5[nH]ccc5c4)c3)CC2)=C(C23CC(C(F)F)(C2)C3)C1` [Example 37, 2-((1H-pyrrolo[2,3-b]pyridin-5-yl)oxy)-N-((4-(((7-oxaspiro[3.5]nonan-2-yl)methyl)amino)-3-nitrophenyl)sulfonyl)-4-(4-((2-(3-(difluoromethyl)bicyclo[1.1.1]pentan-1-yl)-4,4-dimethylcyclohex-1-en-1-yl)methyl)piperazin-1-yl)benzamide], in assay [2], the IC50 is under 100 nM.

`O=C(NS(=O)(=O)c1ccc(NCC2CCOCC2)c([N+](=O)[O-])c1)c1ccc(N2CCN(CC3=C(C45CC(C(F)F)(C4)C5)CC4(CCC4)CC3)CC2)cc1Oc1cnc2[nH]ccc2c1` [Example 42, 2-((1H-pyrrolo[2,3-b]pyridin-5-yl)oxy)-4-(4-((6-(3-(difluoromethyl)bicyclo[1.1.1]pentan-1-yl)spiro[3.5]non-6-en-7-yl)methyl)piperazin-1-yl)-N-((3-nitro-4-(((tetrahydro-2H-pyran-4-yl)methyl)amino)phenyl)sulfonyl)benzamide]: the IC50 in assay [2] was under 100 nM. On the same count and under the same terms, then `CC12CC(C3=C(CN4CCN(c5ccc(C(=O)NS(=O)(=O)c6ccc(NCC7(F)CCOCC7)c([N+](=O)[O-])c6)c(Oc6cnc7[nH]ccc7c6)c5)CC4)CCC4(CCC4)C3)(C1)C2` [Example 43, 2-((1H-pyrrolo[2,3-b]pyridin-5-yl)oxy)-N-((4-(((4-fluorotetrahydro-2H-pyran-4-yl)methyl)amino)-3-nitrophenyl)sulfonyl)-4-(4-((6-(3-methylbicyclo[1.1.1]pentan-1-yl)spiro[3.5]non-6-en-7-yl)methyl)piperazin-1-yl)benzamide], with 100 to 1000 nM; and `CC1(C)CCC(C23CC(Cl)(C2)C3)=C(CN2CCN(c3ccc(C(=O)NS(=O)(=O)c4ccc(N[C@H](CCN5CCOCC5)CSc5ccccc5)c(S(=O)(=O)C(F)(F)F)c4)cc3)CC2)C1` [Example 45, (R)-4-(4-((2-(3-Chlorobicyclo[1.1.1]pentan-1-yl)-5,5-dimethylcyclohex-1-en-1-yl)methyl)piperazin-1-yl)-N-((4-((4-morpholino-1-(phenylthio)butan-2-yl)amino)-3-((trifluoromethyl)sulfonyl)phenyl)sulfonyl)benzamide], with over 1000 nM; and `CN(CCO)CC[C@H](CSc1ccccc1)Nc1ccc(S(=O)(=O)NC(=O)c2ccc(N3CCN(CC4=C(C56CC(C(F)(F)F)(C5)C6)CC(C)(C)CC4)CC3)cc2)cc1S(=O)(=O)C(F)(F)F` [Example 51, (R)-4-(4-((4,4-dimethyl-2-(3-(trifluoromethyl)bicyclo[1.1.1]pentan-1-yl)cyclohex-1-en-1-yl)methyl)piperazin-1-yl)-N-((4-((4-((2-hydroxyethyl)(methyl)amino)-1-(phenylthio)butan-2-yl)amino)-3-((trifluoromethyl)sulfonyl)phenyl)sulfonyl)benzamide], with 100 to 1000 nM. For the compound `CC1(C)CCC(CN2CCN(c3ccc(C(=O)NS(=O)(=O)c4ccc(N[C@H](CCN5CCOCC5)CSc5ccccc5)c(S(=O)(=O)C(F)(F)F)c4)cc3)CC2)=C(C23CC(C)(C2)C3)C1` [Example 52, (R)-4-(4-((4,4-Dimethyl-2-(3-methylbicyclo[1.1.1]pentan-1-yl)cyclohex-1-en-1-yl)methyl)piperazin-1-yl)-N-((4-((4-morpholino-1-(phenylthio)butan-2-yl)amino)-3-((trifluoromethyl)sulfonyl)phenyl)sulfonyl)benzamide], the IC50 in assay [2] lay in the range of 100 to 1000 nM.

On to `CCC12CC(C3=C(CN4CCN(c5ccc(C(=O)NS(=O)(=O)c6ccc(N[C@H](CCN7CCOCC7)CSc7ccccc7)c(S(=O)(=O)C(F)(F)F)c6)cc5)CC4)CCC(C)(C)C3)(C1)C2` [Example 53, (R)-4-(4-((2-(3-Ethylbicyclo[1.1.1]pentan-1-yl)-4,4-dimethylcyclohex-1-en-1-yl)methyl)piperazin-1-yl)-N-((4-((4-morpholino-1-(phenylthio)butan-2-yl)amino)-3-((trifluoromethyl)sulfonyl)phenyl)sulfonyl)benzamide], for which, in assay [2], the IC50 is over 1000 nM.

With `CC1(C)CCC(CN2CCN(c3ccc(C(=O)NS(=O)(=O)c4ccc(N[C@H](CCN5CCOCC5)CSc5ccccc5)c(S(=O)(=O)C(F)(F)F)c4)cc3)CC2)=C(C23CC(C(F)(F)F)(C2)C3)C1` [Example 54, (R)-4-(4-((4,4-dimethyl-2-(3-(trifluoromethyl)bicyclo[1.1.1]pentan-1-yl)cyclohex-1-en-1-yl)methyl)piperazin-1-yl)-N-((4-((4-morpholino-1-(phenylthio)butan-2-yl)amino)-3-((trifluoromethyl)sulfonyl)phenyl)sulfonyl)benzamide], the IC50 in assay [2] was over 1000 nM. Regarding `CC1(C)CCC(CN2CCN(c3ccc(C(=O)NS(=O)(=O)c4ccc(N[C@H](CCN5CCOCC5)CSc5ccccc5)c([N+](=O)[O-])c4)cc3)CC2)=C(C23CC(C)(C2)C3)C1` [Example 56, (R)-4-(4-((4,4-dimethyl-2-(3-methylbicyclo[1.1.1]pentan-1-yl)cyclohex-1-en-1-yl)methyl)piperazin-1-yl)-N-((4-((4-morpholino-1-(phenylthio)butan-2-yl)amino)-3-nitrophenyl)sulfonyl)benzamide], the IC50 in assay [1] is 500 to 1000 nM; in assay [2] it was over 1000 nM. The like results for `CCC12CC(C3=C(CN4CCN(c5ccc(C(=O)NS(=O)(=O)c6ccc(N[C@H](CCN7CCOCC7)CSc7ccccc7)c([N+](=O)[O-])c6)cc5)CC4)CCC(C)(C)C3)(C1)C2` [Example 57, (R)-4-(4-((2-(3-ethylbicyclo[1.1.1]pentan-1-yl)-4,4-dimethylcyclohex-1-en-1-yl)methyl)piperazin-1-yl)-N-((4-((4-morpholino-1-(phenylthio)butan-2-yl)amino)-3-nitrophenyl)sulfonyl)benzamide] were, in that order, over 1000 nM and over 1000 nM. As for `CC1(C)CCC(C23CC(C(F)F)(C2)C3)=C(CN2CCN(c3ccc(C(=O)NS(=O)(=O)c4ccc(N[C@H](CCN5CCC(O)CC5)CSc5ccccc5)c(S(=O)(=O)C(F)(F)F)c4)cc3)CC2)C1` [Example 65, (R)-4-(4-((2-(3-(difluoromethyl)bicyclo[1.1.1]pentan-1-yl)-5,5-dimethylcyclohex-1-en-1-yl)methyl)piperazin-1-yl)-N-((4-((4-(4-hydroxypiperidin-1-yl)-1-(phenylthio)butan-2-yl)amino)-3-((trifluoromethyl)sulfonyl)phenyl)sulfonyl)benzamide], the IC50 in assay [1] was in the range of 500 to 1000 nM. Turning to `CC1(C)CCC(CN2CCN(c3ccc(C(=O)NS(=O)(=O)c4ccc(N[C@H](CCN5CCC(O)CC5)CSc5ccccc5)c(S(=O)(=O)C(F)(F)F)c4)cc3)CC2)=C(C23CC(C)(C2)C3)C1` [Example 68, (R)-4-(4-((4,4-dimethyl-2-(3-methylbicyclo[1.1.1]pentan-1-yl)cyclohex-1-en-1-yl)methyl)piperazin-1-yl)-N-((4-((4-(4-hydroxypiperidin-1-yl)-1-(phenylthio)butan-2-yl)amino)-3-((trifluoromethyl)sulfonyl)phenyl)sulfonyl)benzamide], the IC50 in assay [1] is at most 500 nM; in assay [2], 100 to 1000 nM. As to `CC1(C)CCC(CN2CCN(c3ccc(C(=O)NS(=O)(=O)c4ccc(N[C@H](CCN5CCC(O)C5)CSc5ccccc5)c(S(=O)(=O)C(F)(F)F)c4)cc3)CC2)=C(C23CC(C(F)F)(C2)C3)C1` (stereo partly drawn) [Example 71], the IC50 in assay [1] was 500 to 1000 nM. In the case of `O=C(NS(=O)(=O)c1ccc(NCC2CCOCC2)c([N+](=O)[O-])c1)c1ccc(N2CCN(CC3=C(C45CC(Cl)(C4)C5)CCCC3)CC2)cc1Oc1cnc2[nH]ccc2c1` [Example 72, 2-((1H-pyrrolo[2,3-b]pyridin-5-yl)oxy)-4-(4-((2-(3-chlorobicyclo[1.1.1]pentan-1-yl)cyclohex-1-en-1-yl)methyl)piperazin-1-yl)-N-((3-nitro-4-(((tetrahydro-2H-pyran-4-yl)methyl)amino)phenyl)sulfonyl)benzamide], the IC50 in assay [2] was over 1000 nM.
